According to patent US9440960B2, “Substituted oxetanes and their use as inhibitors of cathepsin C” (Boehringer Ingelheim International GmbH, priority 2014, dated 2016):

Target: T1, recombinant human DPPI (Cathepsin C) (Homo sapiens, UniProt P53634)
T1 construct: purchased Prozymex
Assay: Inhibition of Human DPPI (Cathepsin C)
Assay type: biochemical
Conditions: substrate Gly-Arg-AMC 50 μM, MES buffer pH 6.0, 30 min at room temperature, fluorescence readout
Text: Inhibition of Human DPPI (Cathepsin C)
Materials: Microtiterplates (Optiplate-384 F) were purchased from PerkinElmer (Prod.No. 10 6007270). The substrate Gly-Arg-AMC was from Biotrend (Prod.-No. 808756 Custom peptide).
Bovine serum albumin (BSA; Prod.No. A3059) and Dithiothreitol (DTT; Prod.No D0632) were from Sigma. TagZyme buffer was from Riedel-de-Haen (Prod.-No. 04269), NaCl was from Merck (Prod.-No. 1.06404.1000) and morpholinoethane sulfonic acid (MES), was from Serva (Prod.-No.
29834). The DPP1 inhibitor Gly-Phe-DMK was purchased from MP Biomedicals 15 (Prod.-No. 03DK00625). The recombinant human DPPI was purchased from Prozymex. All other materials were of highest grade commercially available.
The following buffers were used: MES buffer: 25 mM MES, 50 mM NaCl, 5 mM DTT, adjusted to pH 6.0, containing 0.1% BSA; TAGZyme Buffer: 20 mM NaH2PO4, 150 mM NaCl adjusted to pH […]
Assay conditions: The recombinant human DPPI was diluted in TAGZyme buffer to 1 U/ml (38.1 μg/ml, respectively), and then activated by mixing in a 1:2 ratio with a Cysteamine aqueous solution (2 mM) and incubating for 5 min at room temperature.
Five uL test compound (final concentration 0.1 nM to 100 μM) in aqua bidest 5 (containing 4% DMSO, final DMSO concentration 1%) were mixed with 10 μL of DPPI in MES buffer (final concentration 0.0125 ng/μL) and incubated for 10 min. Then, 5 μL of substrate in MES buffer (final concentration 50 μM) were added. The microtiter plates were then incubated at room temperature for 30 min. Then, the reaction was stopped by adding 10 μL of Gly-Phe-DMK in 10 MES-buffer (final concentration 1 μM). The fluorescence in the wells was determined using a Molecular Devices SpectraMax M5 Fluorescence Reader (Ex 360 nm, Em 460 nm) or an Envision Fluorescence Reader (Ex 355 nm, Em 460 nm).
Each assay microtiter plate contained wells with vehicle controls (1% DMSO in bidest+0.075% 15 BSA) as reference for non-inhibited enzyme activity (100% Ctl; high values) and wells with inhibitor (Gly-Phe-DMK, in bidest+1% DMSO+0.075% BSA, final concentration 1 μM) as controls for background fluorescence (0% Ctl; low values).
The analysis of the data was performed by calculating the percentage of fluorescence in the presence of test compound in comparison to the fluorescence of the vehicle control after 20 subtracting the background fluorescence using the following formula: (RFU(sample)−RFU(background))*100/(RFU(control)−RFU(background)) […]
Data from these calculations were used to generate IC50 values for inhibition of DPPI, respectively.

T1 sequence (P53634 231-394 limits assumed): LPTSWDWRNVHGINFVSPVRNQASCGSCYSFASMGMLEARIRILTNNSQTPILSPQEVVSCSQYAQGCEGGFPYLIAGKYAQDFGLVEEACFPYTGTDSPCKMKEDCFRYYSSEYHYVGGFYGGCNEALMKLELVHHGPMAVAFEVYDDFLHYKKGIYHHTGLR
T1 sequence (P53634 395-463 limits assumed): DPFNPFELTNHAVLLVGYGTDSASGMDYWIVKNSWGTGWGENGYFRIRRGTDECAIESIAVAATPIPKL
T1 sequence (P53634 25-143 limits assumed): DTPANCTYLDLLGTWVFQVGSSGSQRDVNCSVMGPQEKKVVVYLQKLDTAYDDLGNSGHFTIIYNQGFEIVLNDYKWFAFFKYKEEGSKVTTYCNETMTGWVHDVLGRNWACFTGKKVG

Structure (SMILES) | IC50 [nM]
N#C[C@H](Cc1ccc(N2CCN(C3COC3)CC2)cc1F)NC(=O)[C@H]1N[C@@H]2CC[C@H]1C2 [Example 1, (1S,2S,4R)—N-[(1S)-1-cyano-2-[2-fluoro-4-[4-(oxetan-3-yl)piperazin-1-yl]phenyl]ethyl]-3-azabicyclo[2.2.1]heptane-2-carboxamide] | 11.7
N#C[C@H](Cc1ccc(N2C3CCC2CN(C2COC2)C3)cc1F)NC(=O)[C@H]1N[C@@H]2CC[C@H]1C2 [Example 2] | 14.4
N#C[C@H](Cc1ccc(N2CC3(C2)CN(C2COC2)C3)cc1F)NC(=O)[C@H]1N[C@@H]2CC[C@H]1C2 [Example 3] | 21.6
N#C[C@H](Cc1ccc(C2=CCN(C3COC3)CC2)cc1F)NC(=O)[C@H]1N[C@@H]2CC[C@H]1C2 [Example 4, (1S,2S,4R)—N-[(1S)-1-cyano-2-[2-fluoro-4-[1-(oxetan-3-yl)-3,6-dihydro-2H-pyridin-4-yl]phenyl]ethyl]-3-azabicyclo[2.2.1]heptane-2-carboxamide] | 5.6
N#C[C@H](Cc1ccc(N2CC3CN(C4COC4)CC3C2)cc1F)NC(=O)[C@H]1N[C@@H]2CC[C@H]1C2 (stereo partly drawn) [Example 5, (1S,2S,4R)—N-[(1S)-1-cyano-2-[2-fluoro-4-[5-(oxetan-3-yl)-1,3,3a,4,6,6a-hexahydropyrrolo[3,4-c]pyrrol-2-yl]phenyl]ethyl]-3-azabicyclo[2.2.1]heptane-2-carboxamide] | 16.5
N#C[C@H](Cc1ccc(N2CC3CCN(C4COC4)C3C2)cc1F)NC(=O)[C@H]1N[C@@H]2CC[C@H]1C2 (stereo partly drawn) [Example 6] | 13.5
N#C[C@H](Cc1ccc(N2CCC3CN(C4COC4)CC32)cc1F)NC(=O)[C@H]1N[C@@H]2CC[C@H]1C2 (stereo partly drawn) [Example 7] | 9.9
N#C[C@H](Cc1ccc(N2CCC3C2CCN3C2COC2)cc1F)NC(=O)[C@H]1N[C@@H]2CC[C@H]1C2 (stereo partly drawn) [Example 8] | 35.5
N#C[C@H](Cc1ccc(N2CCC3C2CCN3C2COC2)cc1F)NC(=O)[C@H]1N[C@@H]2CC[C@H]1C2 (stereo partly drawn) [Example 9] | 17.6
N#C[C@H](Cc1ccc(C2CCN(C3COC3)CC2)cc1F)NC(=O)[C@H]1N[C@@H]2CC[C@H]1C2 [Example 10, (1S,2S,4R)—N-[(1S)-1-cyano-2-[2-fluoro-4-[1-(oxetan-3-yl)-4-piperidyl]phenyl]ethyl]-3-azabicyclo[2.2.1]heptane-2-carboxamide] | 60.1
N#C[C@H](Cc1ccc(C2CCCN(C3COC3)C2)cc1F)NC(=O)[C@H]1N[C@@H]2CC[C@H]1C2 (stereo partly drawn) [Example 11] | 52.7
N#C[C@H](Cc1ccc(C2CCN(C3COC3)C2)cc1F)NC(=O)[C@H]1N[C@@H]2CC[C@H]1C2 (stereo partly drawn) [Example 12] | 29.4
N#C[C@H](Cc1ccc(C2CC3CN(C4COC4)CC3C2)cc1F)NC(=O)[C@H]1N[C@@H]2CC[C@H]1C2 (stereo partly drawn) [Example 13] | 79.7
N#C[C@H](Cc1ccc(C2CC3CN(C4COC4)CC3C2)cc1F)NC(=O)[C@H]1N[C@@H]2CC[C@H]1C2 (stereo partly drawn) [Example 14] | 29.3
N#C[C@H](Cc1ccc(N2CCN(C3COC3)CC2)cc1F)NC(=O)C12CCC(CC1)CN2 [Example 15, N-[(1S)-1-cyano-2-[2-fluoro-4-[4-(oxetan-3-yl)piperazin-1-yl]phenyl]ethyl]-2-azabicyclo[2.2.2]octane-1-carboxamide] | 66.5
